{"source": "patent US20130309325A1", "about": "“COMPOSITION AND METHOD FOR PROMOTING JOINT AND BONE HEALTH” (VITAL ANIMAL HEALTH, LLC, priority 2012, published 2013)", "origin": "cited, not measured here", "test_system": "young racing quarter horses", "key": {"[1]": {"conditions": "horses with increased plasma silicon concentrations"}}, "data": [{"substance": "silicon", "values": [{"measurement": "average race times", "setting": "[1]", "value": "faster average race times"}, {"measurement": "distance covered before injury", "setting": "[1]", "value": "covered more distance before injury"}, {"measurement": "strides completed before injury", "setting": "[1]", "value": "completed more strides before injury"}, {"measurement": "incidence of bone related injuries", "setting": "supplemental silicon, young racing quarter horses", "value": "decreased the incidence of bone related injuries"}]}]}
